Assay results published in publication PMC11356900, “Synthesis, Structural Properties and Biological Activities of Novel Hydrazones of 2-, 3-, 4-Iodobenzoic Acid” (Molecules, 2024).
≈ marks a conversion by molar mass, not a printed value.

Tests used:
[1] = test system: Gram-positive bacterial strains; set-up: method as in doi:10.14419/ijac.v5i1.7155; details: mainly Gram-positive bacterial strains; cited from earlier work
[2] = test system: Staphylococcus aureus ATCC 25923; experiment: Broth microdilution MIC/MBC; details: Staphylococcus aureus, ATCC25923
[3] = test system: Micrococcus luteus ATCC 10240; experiment: Broth microdilution MIC/MBC; details: Micrococcus luteus, ATCC10240
[4] = test system: Staphylococcus aureus ATCC 43300; experiment: Broth microdilution MIC/MBC; details: ATCC43300 / MRSA
[5] = test system: Bordetella bronchiseptica ATCC 4617; experiment: Broth microdilution MIC/MBC; details: ATCC4617
[6] = test system: Proteus mirabilis ATCC 12453; experiment: Broth microdilution MIC/MBC; details: ATCC12453
Gram-positive bacteria = experiment: Broth microdilution, summary over reference Gram-positive bacteria; type: cell-based; details: reference Gram-positive bacteria / studied bacteria
In short: (§1)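 Two-fold dilutions in RPMI 1640 with MOPS (fungi) or Mueller-Hinton broth (bacteria), final 1000–0.488 µg/mL, inoculum 0.5 McFarland in 0.85% NaCl. MIC read spectrophotometrically; MBC/MFC as lowest concentration with no visible growth after well contents were spotted onto agar.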

[7] = test system: Staphylococcus epidermidis ATCC 12228; experiment: Broth microdilution MIC/MBC; details: ATCC12228
[8] = test system: Candida albicans ATCC 2091; experiment: Broth microdilution MIC/MFC; type: cell-based; details: for MFC: ATCC2091, read-out: MFC; for MIC: ATCC2091, read-out: MIC
In short: as §1

[9] = test system: Candida albicans ATCC 10231; experiment: Broth microdilution MIC/MFC; type: cell-based; details: for MFC: ATCC10231, read-out: MFC; for MIC: ATCC10231, read-out: MIC
In short: as §1

[10] = test system: Candida krusei ATCC 14243; experiment: Broth microdilution MIC/MFC; type: cell-based; details: Pichia kudriavzevii; for MFC: ATCC14243, read-out: MFC; for MIC: ATCC14243, read-out: MIC
In short: as §1

[11] = test system: Candida parapsilosis ATCC 22019; experiment: Broth microdilution MIC/MFC; type: cell-based; details: Lodderomyces parapsilosis; for MFC: ATCC22019, read-out: MFC; for MIC: ATCC22019, read-out: MIC
In short: as §1

[12] = test system: Candida glabrata ATCC 90030; experiment: Broth microdilution MIC/MFC; type: cell-based; details: Nakaseomyces glabratus; for MFC: ATCC90030, read-out: MFC; for MIC: ATCC90030, read-out: MIC
In short: as §1

[13] = test system: Pseudomonas aeruginosa ATCC 9027; experiment: Broth microdilution MIC/MBC; details: ATCC9027
[14] = test system: Salmonella typhimurium ATCC 14028; experiment: Broth microdilution MIC/MBC; details: Salmonella enterica
[15] = test system: Bacillus subtilis ATCC 6633; experiment: Broth microdilution MIC/MBC; details: ATCC6633
[16] = test system: Bacillus cereus ATCC 10876; experiment: Broth microdilution MIC/MBC; details: Bacillus cereus, ATCC10876
[17] = test system: Escherichia coli ATCC 25922; experiment: Broth microdilution MIC/MBC; details: ATCC25922
Candida spp. = experiment: Broth microdilution, summary over reference yeasts; type: cell-based
Description: Procedures of in vitro antimicrobial assays are described in Supplementary Materials.
2. Microbiology – in vitro antimicrobial activity assays […]
using the broth microdilution method according to the European Committee on Antimicrobial Susceptibility Testing (EUCAST) and Clinical and Laboratory Standards Institute guidelines against a panel of reference and clinical or saprophytic strains of mi croorganisms, including the Gram-positive bacteria: Staphylococcus aureus ATCC 43300 (Methi-cillin Resistant S. aureus – MRSA), Staphylococcus aureus ATCC 29213 (Methicillin Susceptible S. aureus – MSSA), Staph-ylococcus epidermidis ATCC 12228, Micrococcus luteus ATCC 10240, Bacillus subtilis ATCC 6633 and Bacillus cereus ATCC 10876), Gram-negative bacteria: Bordetella bronchiseptica ATCC 4617, Escherichia coli ATCC 25922, Klebsiella pneumoniae ATCC 13883, Proteus mirabilis ATCC 12453, Salmonella typhimurium ATCC 14028 and Pseudomonas aeruginosa ATCC 9027, and fungi belonging to yeasts: Candida albicans ATCC 10231, Candida albicans ATCC 2091, Candida parapsilosis ATCC 22019, Candida glabrata ATCC 90030 and Candida krusei ATCC 14243. The microorganisms belonging to ATCC originated from American Type Culture Collection, routinely used for the evaluation of antimicrobials. All the used microbial cultures were first subcultured on nutrient agar or Sabouraud agar at 35°C for 18-24 h or 30°C for 24-48 h for bacteria […]
The surface of Mueller-Hinton agar (for bacteria) and RPMI 1640 with MOPS (for fungi) were inoculated with the suspensions of bacterial or fungal species. Microbial suspensions were prepared in sterile saline with an optical density of McFarland standard scale 0.5. The samples containing the compounds were dissolved in dimethyl sulfoxide (DMSO).
Furthermore, the bacterial and fungal suspensions put onto the Petri dishes with solid media containing 2 mg/mL of the tested compounds followed were incubated at 37°C for 24h and 30°C for 48h for bacteria and fungi, respectively.
The inhibition of microbial growth was estimated comparing with a control culture prepared without any tested sam- […]
antifungal compounds, respectively.
Subsequently, MIC (Minimal Inhibitory Concentration) of the compounds was examined by the microdilution broth method, using their two-fold dilutions in Mueller-Hinton broth (for bacteria) and RPMI 1640 broth with MOPS (for fungi) prepared in the 96-well polystyrene plates. The final concentrations of the compounds ranged from 1000 to 0.488 µg/mL. Microbial suspensions were prepared in 0.85% NaCl with an optical density of 0.5 McFarland standard. Next each bacterial or fungal suspension was added per each well containing broth and various concentrations of the exam-ined compounds. After incubation, the MIC was assessed spectrophotometrically as the lowest concentration of the […]
Appropriate DMSO, growth and sterile controls were carried out. The medium with no tested substances was used as a control The MBC (Minimal Bactericidal Concentration) and MFC (Minimal Fungicidal Concentration) are defined as the lowest concentration of the compounds that is required to kill a particular bacterial or fungal species. The MBC/MFC was determined by removing the culture used for the MIC determination from each well and spotted onto the appro-priate agar medium. The plates were incubated under appropriate conditions for bacteria and fungi. The lowest com-pounds concentration with no visible growth observed was assessed as a bactericidal/fungicidal concentration. All the experiments were repeated three times and the representative data are presented.
1. European Committee for Antimicrobial Susceptibility Testing (EUCAST) Determination of minimum inhibitory con-centrations (MICs) of antibacterial agents by broth dilution. EUCAST discussion document E. Dis 5.1. Clin. Microbiol.
2. Clinical and Laboratory Standards Institute. Reference method for broth dilution antifungal susceptibility testing of […]

[18] = test system: Klebsiella pneumoniae ATCC 13883; experiment: Broth microdilution MIC/MBC; details: ATCC13883
[19] = test system: Staphylococcus aureus ATCC 29213; experiment: Broth microdilution MIC/MBC; details: ATCC29213
[20] = range over the reference Candida spp. strains

SMILES | MIC [2] [µg/mL] | MIC [3] [µg/mL] | melting point [°C] | MIC [4] [µg/mL] | MIC [5] [µg/mL] | MIC [6] [µg/mL] | MIC [7] [µg/mL] | MFC [8] [µg/mL] | MIC [8] [µg/mL] | MFC [9] [µg/mL] | MIC [9] [µg/mL] | MFC [10] [µg/mL] | MIC [10] [µg/mL] | MFC [11] [µg/mL] | MIC [11] [µg/mL] | MFC [12] [µg/mL] | MIC [12] [µg/mL] | MIC [13] [µg/mL] | MIC [14] [µg/mL] | MIC [15] [µg/mL] | also measured
O=C(NN=Cc1ccc(F)cc1)c1ccccc1 [N-(4-fluorobenzylidene)benzohydrazide] |  |  |  |  |  |  |  |  |  |  |  |  |  |  |  |  |  |  |  |  | zone of bacterial growth inhibition ZOI [1]: 6–7 mm
O=C(N/N=C/c1cc(Br)cc(Br)c1O)c1ccc(I)cc1 [Compound 28, N-[(3,5-dibromo-2-hydroxyphenyl)methylidene]-4-iodobenzohydrazide] | > 1000 | > 1000 | 210 to 211 | > 1000 | > 1000 | > 1000 | > 1000 | > 1000 | 1000 (≈ 1910 µM) | > 1000 | 500 (≈ 954 µM) | > 1000 | 1000 (≈ 1910 µM) | > 1000 | 500 (≈ 954 µM) | > 1000 | 1000 (≈ 1910 µM) | > 1000 | > 1000 | > 1000 | antibacterial activity in words (Gram-positive bacteria): No antimicrobial effect; MIC [16]: > 1000 µg/mL; MIC [17]: > 1000 µg/mL; MFC (Candida spp.; [20]): > 1000 µg/mL; MIC (Candida spp.; [20]): 250 to 1000 µg/mL (≈ 477 to 1910 µM); MIC [18]: > 1000 µg/mL; MIC [19]: > 1000 µg/mL
O=C(N/N=C/c1cc(O)ccc1O)c1ccc(I)cc1 [Compound 26, N-[(2,5-dihydroxyphenyl)methylidene]-4-iodobenzohydrazide] | > 1000 | 500 (≈ 1310 µM) | 261 to 265 | 1000 (≈ 2620 µM) | > 1000 | > 1000 | 1000 (≈ 2620 µM) | > 1000 | 1000 (≈ 2620 µM) | > 1000 | 500 (≈ 1310 µM) | > 1000 | 500 (≈ 1310 µM) | > 1000 | 250 (≈ 654 µM) | > 1000 | 1000 (≈ 2620 µM) | > 1000 | > 1000 | 500 (≈ 1310 µM) | MBC [3]: > 1000 µg/mL; MBC [4]: > 1000 µg/mL; MBC [7]: > 1000 µg/mL; MBC [15]: > 1000 µg/mL; MIC [16]: > 1000 µg/mL; MIC [17]: > 1000 µg/mL; MFC (Candida spp.; [20]): > 1000 µg/mL; MIC (Candida spp.; [20]): 250 to 1000 µg/mL (≈ 654 to 2620 µM); MIC [18]: > 1000 µg/mL; MIC [19]: > 1000 µg/mL
O=C(N/N=C/c1cc(O)ccc1O)c1cccc(I)c1 [Compound 19, N-[(2,5-dihydroxyphenyl)methylidene]-3-iodobenzohydrazide] | > 1000 | > 1000 | 220 to 224 | > 1000 | > 1000 | > 1000 | > 1000 | > 1000 | 500 (≈ 1310 µM) | > 1000 | 250 (≈ 654 µM) | > 1000 | 250 (≈ 654 µM) | > 1000 | 125 (≈ 327 µM) | > 1000 | 500 (≈ 1310 µM) | > 1000 | > 1000 | > 1000 | antibacterial activity in words (Gram-positive bacteria): no activity; MIC [16]: > 1000 µg/mL; MIC [17]: > 1000 µg/mL; MFC/MIC (Candida spp.; [20]): > 4; MIC (Candida spp.; [20]): 125 to 500 µg/mL (≈ 327 to 1310 µM); antifungal activity in words (Candida spp.; reference yeasts from Candida spp.): good and moderate; MIC [18]: > 1000 µg/mL; MIC [19]: > 1000 µg/mL
